We go through 22 compounds from patent publication US20230242496A1, “SOX11 INHIBITORS FOR TREATING MANTLE CELL LYMPHOMA” (Icahn School of Medicine At Mount Sinai, priority 2020, published 2023).

For assay [1], the target named is T1, (His)6-SOX11-DBD protein (Homo sapiens, UniProt P35716).
T1 construct: Recombinant (His)6-SOX11-DBD protein was immobilized
T1 sequence (P35716 49-117 limits assumed): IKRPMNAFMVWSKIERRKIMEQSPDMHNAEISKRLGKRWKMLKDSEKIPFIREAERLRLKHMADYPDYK
In words: Surface Plasmon Resonance (SPR) assay. The assay is classed as binding. The note with it: immobilized recombinant (His)6-SOX11-DBD, 25° C., compounds 5-40 μM, mean of three experiments. Here is the method: Surface Plasmon Resonance (SPR) Assay
Recombinant (His)6-SOX11-DBD protein was immobilized at a flow rate of 10 μl/min for 180 seconds to the right channel of a gold-coated SCR NiHC200M sensor chip (XanTec bioanalytics) placed in a Reichert 2SPR instrument (Reichert Technologies). The left channel, without immobilized protein, was used as a reference. […] Compounds flowed sequentially from the left to the right channel over the prepared sensor chip surface. 120 seconds association phase with each compound concentration was followed by 300 seconds dissociation phase with the assay buffer alone. The ka, kd, and KD values were determined from the sensograms for at least 3 concentrations of each compound by curve fitting the data using Reichert's TraceDrawer software. The mean KD value for each compound was calculated from three separate experiments.

The test system of assay [2] is Jeko-1 (SOX11+). In words: Cell viability assay (CellTiter-Blue resazurin reduction). The assay is classed as cell-based. The note with it: JeKo-1 cells; for IC50: 0-40 μM; for viability at 20 µM: 20 μM compound, normalized to 0.2% DMSO. Here is the method: Cell viability was determined by a fluorometric resazurin reduction method (CellTiter-Blue; Promega, Madison, Wis.) following the manufacturer's instructions. […] Cells were incubated for 72 hours. After incubation, 20 μl CellTiter-Blue Cell was added to each well and incubated for another 2 hours. […] The number of viable cells in each treated well was calculated, based on the linear least squares regression of the standard curve (OD vs. cell concentration). The viability of cells treated with compounds was normalized to the viability of cells treated with 0.2% Dimethyl sulfoxide (DMSO). Cell counts were confirmed with Trypan Blue Exclusion Assay on the Countess automated cell counter (Invitrogen) according to the manufacturer's specifications. The average and mean standard deviation were calculated from three separate experiments. IC50 values were calculated using the GraphPad Prism (version 4.00) based on a sigmoidal dose-response equation.
For orientation: Alamar Blue is a resazurin reagent that responds to reducing activity.

Regarding `CC1Sc2ccc(C(=O)Nc3cccc(S(=O)(=O)N(C)C)c3)cc2NC1=O` (stereo not drawn), in assay [1], the Kd amounted to 69.5 µM. In addition, in assay [2] (Homo sapiens, JeKo-1, 72 h), the IC50 was 8.5 µM and the viability at 20 µM was determined as 1.43%.

For the compound `O=C(Nc1cccc(CNc2ccccc2)c1)c1ccc2c(c1)CCCS2`, in assay [1], the Kd came to 7.34 µM. Also, the viability at 20 µM in assay [2] (Homo sapiens, JeKo-1, 72 h) was determined as 85.3%.

As for `CC1Sc2ccc(C(=O)Nc3ccc(Cl)c(S(=O)(=O)N(C)C(C)C)c3)cc2NC1=O` (stereo not drawn), the Kd in assay [1] was determined as 13.4 µM. In assay [2] (Homo sapiens, JeKo-1, 72 h), the viability at 20 µM turned out to be 12%.

Regarding `CN1C(=O)CSc2ccc(C(=O)Nc3ccc(S(=O)(=O)N4CCCCC4)c(Cl)c3)cc21`, the Kd in assay [1] turned out to be 2.75 µM. In addition, the viability at 20 µM in assay [2] (Homo sapiens, JeKo-1, 72 h) came to 4.13%.

Take `Nc1ccccc1CC(=O)Nc1cccc(C(=O)Nc2ccc(S(=O)(=O)Nc3ccccc3)cc2)c1`: in assay [1], the Kd was 0.805 µM. In assay [2] (Homo sapiens, JeKo-1, 72 h), the IC50 is 11 µM and the viability at 20 µM was 9.92%.

For `Nc1cc(C(=O)Nc2ccc(S(=O)(=O)Nc3ccccc3)cc2)ccc1/C=C\C(=O)O`, the Kd in assay [1] is 2.22 µM. In assay [2] (Homo sapiens, JeKo-1, 72 h), the IC50 was 9 µM and the viability at 20 µM is 12.4%.

Take `CC1Sc2ccc(C(=O)Nc3cccc(S(=O)(=O)N4CCN(C(=O)OC(C)(C)C)CC4)c3)cc2NC1=O` (stereo not drawn): the Kd in assay [1] amounted to 1.76 µM. Moreover, in assay [2] (Homo sapiens, JeKo-1, 72 h), the concentration for half-maximal inhibition (IC50) amounted to 18 µM and the viability at 20 µM came to 36.4%.

Turning to `O=C(Nc1ccc(S(=O)(=O)Nc2ccccc2)cc1)c1ccc2ncccc2c1`, the Kd in assay [1] worked out at 70 µM. For the same compound, in assay [2] (Homo sapiens, JeKo-1, 72 h), the IC50 was under 20 µM and the viability at 20 µM was 26%.

Take `O=C(Nc1ccc(S(=O)(=O)Nc2ccccc2)cc1)c1ccc2snnc2c1`: in assay [1], the Kd is 5.65 µM. Moreover, in assay [2] (Homo sapiens, JeKo-1, 72 h), the half-maximal inhibitory concentration (IC50) lay in the range of 5 to 10 µM and the viability at 20 µM was found to be 34.3%.

On to `CCN(c1ccccc1)S(=O)(=O)c1cccc(NC(=O)c2ccc3snnc3c2)c1`, for which the Kd in assay [1] turned out to be 2.65 µM. Also, in assay [2] (Homo sapiens, JeKo-1, 72 h), half-maximal inhibition (IC50) required 8.5 µM and the viability at 20 µM is 4.86%.

With `CC1Sc2ccc(C(=O)Nc3cccc(S(=O)(=O)NC4CCNCC4)c3)cc2NC1=O` (stereo not drawn), the dissociation constant Kd in assay [1] amounted to 54.6 µM. In assay [2] (Homo sapiens, JeKo-1, 72 h), the IC50 was over 20 µM and the viability at 20 µM amounted to 96.6%.

Consider `Cc1ccc(NS(=O)(=O)c2ccc(NC(=O)c3ccc4c(c3)NC(=O)C(C)S4)cc2)cc1` (stereo not drawn), for which the Kd in assay [1] stood at 12.4 µM. Moreover, in assay [2] (Homo sapiens, JeKo-1, 72 h), half-maximal inhibition (IC50) required 10 µM and the viability at 20 µM worked out at 0.51%.

Take `Cc1nc2cc(C(=O)Nc3ccc(S(=O)(=O)Nc4ccccc4)cc3)ccc2s1`: the Kd in assay [1] amounted to 21.2 µM. Also, in assay [2] (Homo sapiens, JeKo-1, 72 h), the IC50 is 12 µM and the viability at 20 µM is 16.6%.

Take `CC1Sc2ccc(C(=O)Nc3ccc(CNc4cccc(S(=O)(=O)F)c4)cc3)cc2NC1=O` (stereo not drawn): the Kd in assay [1] came out at 1.65 µM. In assay [2] (72 hours), this compound showed an IC50 of 16 µM.

For the compound `CC1Sc2ccc(C(=O)Nc3ccc(S(=O)(=O)Nc4ccncc4)cc3)cc2NC1=O` (stereo not drawn), the Kd in assay [1] amounted to 30.9 µM. In assay [2] (Homo sapiens, JeKo-1, 72 h), the IC50 was over 20 µM and the viability at 20 µM amounted to 103%.

Consider `O=C(Nc1ccc(S(=O)(=O)Nc2ccccc2)cc1)c1ccc2ccncc2c1`, for which the Kd in assay [1] came out at 37.9 µM. In addition, in assay [2] (Homo sapiens, JeKo-1, 72 h), the IC50 was 5 µM and the viability at 20 µM is 24.8%.

Turning to `Cc1ccccc1COc1ccc(NC(=O)c2ccc3c(c2)NC(=O)C(C)S3)cc1` (stereo not drawn), the Kd in assay [1] came out at 7.91 µM. The viability at 20 µM in assay [2] (Homo sapiens, JeKo-1, 72 h) was 99.2%.

`CC1Sc2ccc(C(=O)Nc3cccc(S(=O)(=O)Nc4ccc(NC(=O)OC(C)(C)C)cc4)c3)cc2NC1=O` (stereo not drawn): in assay [1], the Kd is 5.07 µM. In assay [2] (Homo sapiens, JeKo-1, 72 h), the IC50 was over 20 µM and the viability at 20 µM worked out at 67.4%.

As for `CC1Sc2ccc(C(=O)Nc3ccc(S(C)(=O)=O)cc3)cc2NC1=O` (stereo not drawn), the Kd in assay [1] amounted to 7.13 µM. In assay [2] (Homo sapiens, JeKo-1, 72 h), half-maximal inhibition (IC50) was put at 15 µM and the viability at 20 µM came out at 30.6%.

Take `Cc1ccc(NC(=O)c2ccc3c(c2)N(C)C(=O)CS3)cc1S(=O)(=O)N1CCCCC1`: the Kd in assay [1] stood at 8.89 µM. The viability at 20 µM in assay [2] (Homo sapiens, JeKo-1, 72 h) was found to be 3.42%.

With `CC1Sc2ccc(C(=O)Nc3cccc(S(=O)(=O)Nc4cccc(Cl)c4)c3)cc2NC1=O` (stereo not drawn), the equilibrium dissociation constant (Kd) in assay [1] worked out at 3.15 µM. For the same compound, in assay [2] (Homo sapiens, JeKo-1, 72 h), the IC50 was under 20 µM and the viability at 20 µM is 28.8%.

For the compound `Cc1ccccc1NS(=O)(=O)c1ccc(NC(=O)c2ccc3c(c2)NC(=O)C(C)S3)cc1` (stereo not drawn), in assay [1], the Kd amounted to 14.1 µM. Also, in assay [2] (Homo sapiens, JeKo-1, 72 h), the IC50 is 10 µM and the viability at 20 µM turned out to be 9.87%.

In general, Kd refers to the free concentration of one partner at which half of the binding sites on the other are occupied at equilibrium, for simple one-to-one binding. One may read the IC50 as the point on the concentration scale where inhibition reaches its midpoint. As a reminder, the viability is a read-out of living cells in per cent, often relative to untreated cells.
